We go through 1 substance from patent US10000582B2, “Ethylsulfonated hyaluronic acid biopolymers and methods of use thereof” (The Regents of the University of California, priority 2013, dated 2018).

The assay has as its system platelets (platelet rich plasma). Description: Platelet adhesion assay (SEM imaging). It counts as cell-based. From the text:
Platelet adhesion experiments were visualized by scanning electron microscope (SEM) imaging (FIG. 7).

For heparin, the “platelet aggregation on the material” value is listed as “no aggregation of platelets”.
